According to patent publication US8163768B2, “1,4-dihydropyridine-fused heterocycles, process for preparing the same, use and compositions containing them” (Aventis Pharma S.A.., priority 2005, dated 2012):
pIC50: −log10 of the molar value.

Assays:
Aurora1 (Aurora-B) = target: T1, Aurora1 (Aurora-B) (Homo sapiens, UniProt Q96GD4); assay: Aurora 1 (Aurora B) kinase radioactivity scintillation assay using nickel chelate Flash plates; format: biochemical; settings: 10 nM Aurora-B (co expressed with C3 fragment of INCEP), 500 nM NuMA substrate, 1 μM ATP with [33P] ATP, 5 mM MgCl2, 30 minutes, 37° C.
T1 construct: Aurora-B: the full length protein (His tagged in N-terminal) has been co expressed in SF9 cells; poly-histidine (N); made in house; host or cells: SF9 cells
T1 sequence (Q96GD4 whole entry, species assumed, the tested form may be a part): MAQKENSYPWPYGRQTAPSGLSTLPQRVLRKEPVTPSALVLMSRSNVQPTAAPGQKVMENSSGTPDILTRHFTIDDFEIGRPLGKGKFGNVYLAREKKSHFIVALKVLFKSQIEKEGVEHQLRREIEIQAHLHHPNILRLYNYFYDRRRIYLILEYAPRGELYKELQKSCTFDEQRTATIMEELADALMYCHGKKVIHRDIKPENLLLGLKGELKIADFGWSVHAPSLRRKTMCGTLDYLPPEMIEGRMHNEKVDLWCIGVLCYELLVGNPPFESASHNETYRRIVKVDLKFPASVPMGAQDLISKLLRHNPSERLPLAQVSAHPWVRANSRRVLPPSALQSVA
T1 sequence (Q9NQS7 821-918 partner limits assumed, species assumed): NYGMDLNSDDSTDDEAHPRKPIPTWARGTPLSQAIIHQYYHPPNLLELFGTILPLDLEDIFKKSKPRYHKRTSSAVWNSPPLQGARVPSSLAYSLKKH
Description: Aurora 1 and 2 (Respectively. Aurora B and A)
The inhibitory effect of compounds with respect to the Aurora 1 and 2 kinases is determined with a radioactivity scintillation assay using nickel chelate.
The kinase activity of Aurora is measured by the phosphorylation of NuMA-histidine substrate in the presence of radiolabelled ATP ([^33P] ATP) using 96 well Flash plates where the nickel-chelate is linked to the surface of the microplate. The amount of ^33P incorporated to the substrate NuMA is proportional to the aurora activity.
The Flash plates used are nickel-chelate 96 well plates (Perkin Elmer, model SMP107).
The products to be evaluated are incubated in a 100 μl reaction volume per well in the presence of 10 nM of Aurora-B or Aurora-A, 500 nM of NuMA substrate in the following buffer: 50 mM of NaCl, 5 mM MgCl2, (Aurora-B) or 10 mM MgCl2 (Aurora-A) and 1 mM of DTT at 37° C.
80 μL of enzyme/substrate incubation buffer is distributed in each well, followed by 10 μL of solution of compound to be measured with various concentrations. The reaction is started by adding 1 μM of ATP (final concentration) containing 0.2 μCi of [^33P] ATP (10 μL). After 30 minutes of incubation the reaction is stopped by removal of the reaction mixture and each well is washed twice with 300 μl of buffer Tris/HCl. The radioactivity is measured in each well using a Packard Top count scintillation counter instrument.
The enzymatic activity is expressed as counts per minute obtained in 30 minutes after subtraction of the background noise (reaction medium without enzyme). The measurement is expressed as percentage of inhibition of Aurora activity versus the control. To generate IC50 values, compounds of the invention are tested at different concentration and the percentage of inhibition are plotted as function of compound concentration, IC50s are calculated using the Xlfit 4 curve fitting software.

Aurora2 (Aurora-A) = target: T2, Aurora2 (Aurora-A) (Homo sapiens, UniProt O14965); assay: Aurora 2 (Aurora A) kinase radioactivity scintillation assay using nickel chelate Flash plates; format: biochemical; settings: 10 nM Aurora-A, 500 nM NuMA substrate, 1 μM ATP with [33P] ATP, 10 mM MgCl2, 30 minutes, 37° C.
T2 construct: Aurora-A: the full length recombinant protein including an N-terminal poly-histidine tail has been expressed in E. coli; poly-histidine (N); made in house; host or cells: E. coli
T2 sequence (O14965 1-403): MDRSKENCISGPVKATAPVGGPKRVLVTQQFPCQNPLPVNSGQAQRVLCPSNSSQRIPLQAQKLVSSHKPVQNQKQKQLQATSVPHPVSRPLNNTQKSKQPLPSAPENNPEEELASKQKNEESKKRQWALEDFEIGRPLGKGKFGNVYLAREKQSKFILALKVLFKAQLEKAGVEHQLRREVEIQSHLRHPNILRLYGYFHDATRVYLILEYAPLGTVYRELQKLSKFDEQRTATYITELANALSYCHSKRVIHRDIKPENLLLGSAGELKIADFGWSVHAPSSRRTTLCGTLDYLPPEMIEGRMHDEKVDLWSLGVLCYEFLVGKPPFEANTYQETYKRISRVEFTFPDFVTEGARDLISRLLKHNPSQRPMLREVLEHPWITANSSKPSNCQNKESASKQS
In short: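 10 nM Aurora-B or Aurora-A with 500 nM NuMA-His substrate, 1 μM ATP plus [³³P]ATP, in 50 mM NaCl, 1 mM DTT and 5 mM (B) or 10 mM (A) MgCl2, 30 min at 37° C on nickel-chelate plates. Incorporated ³³P counted after washing, background-subtracted; IC50 fitted from % inhibition versus concentration.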

pIC50 (Aurora1 (Aurora-B))	pIC50 (Aurora2 (Aurora-A))	Structure (SMILES)
7.82	7.15	COc1ccc2[nH]c(Sc3ccc(C4C5=C(CCCC5=O)Nc5n[nH]cc54)o3)nc2c1 (stereo not drawn) [Example 79, 4-[5-(5-Methoxy-1H-benzimidazol-2-ylsulfanyl)-furan-2-yl]-2,4,6,7,8,9-hexahydro-pyrazolo[3,4-b]quinolin-5-one; compound with trifluoro-acetic acid]
7.39	6.31	COc1ccc2[nH]c(Sc3ccc(C4C5=C(CNCC5=O)Nc5n[nH]cc54)o3)nc2c1 (stereo not drawn) [Example 80, 4-[5-(5-Methoxy-1H-benzimidazol-2-ylsulfanyl)-furan-2-yl]-2,4,6,7,8,9-hexahydro-pyrazolo[3,4-b]-1,7-naphthyridin-5-one; compound with trifluoro-acetic acid]
7.96	7.48	COc1ccc2[nH]c(Sc3ccc(C4C5=C(CC(C)(C)CC5=O)Nc5n[nH]cc54)o3)nc2c1 (stereo not drawn) [Example 81, 4-[5-(5-Methoxy-1H-benzimidazol-2-ylsulfanyl)-furan-2-yl]-7,7-dimethyl-2,4,6,7,8,9-hexahydro-pyrazolo[3,4-b]quinolin-5-one]
6.82	5.87	Cn1c(Sc2ccc(C3C4=C(CCCC4=O)Nc4n[nH]cc43)o2)nc2ccccc21 (stereo not drawn) [Example 82, 4-[5-(1-Methyl-1H-benzimidazol-2-ylsulfanyl)-furan-2-yl]-2,4,6,7,8,9-hexahydro-pyrazolo[3,4-b]quinolin-5-one; compound with trifluoro-acetic acid]
6.75	6.02	Cn1c(Sc2ccc(C3C4=C(CC(C)(C)CC4=O)Nc4n[nH]cc43)o2)nc2ccccc21 (stereo not drawn) [Example 84, 7,7-Dimethyl-4-[5-(1-methyl-1H-benzimidazol-2-ylsulfanyl)-furan-2-yl]-2,4,6,7,8,9-hexahydro-pyrazolo[3,4-b]quinoline-5-one]
8.05	7.66	O=C1CCCC2=C1C(c1ccc(Sc3nc4cc(Cl)c(Cl)cc4[nH]3)o1)c1c[nH]nc1N2 (stereo not drawn) [Example 85, 4-[5-(5,6-Dichloro-1H-benzimidazol-2-ylsulfanyl)-furan-2-yl]-2,4,6,7,8,9-hexahydro-pyrazolo[3,4-b]quinolin-5-one; compound with trifluoro-acetic acid]
7.77	7.09	O=C1CNCC2=C1C(c1ccc(Sc3nc4cc(Cl)c(Cl)cc4[nH]3)o1)c1c[nH]nc1N2 (stereo not drawn) [Example 86, 4-[5-(5,6-Dichloro-1H-benzoimidazol-2-ylsulfanyl)-furan-2-yl]-2,4,6,7,8,9-hexahydro-pyrazolo[3,4-b]-1,7-naphthyridin-5-one; compound with trifluoro-acetic acid]
8.10	7.66	CC1(C)CC(=O)C2=C(C1)Nc1n[nH]cc1C2c1ccc(Sc2nc3cc(Cl)c(Cl)cc3[nH]2)o1 (stereo not drawn) [Example 87, 4-[5-(5,6-Dichloro-1H-benzoimidazol-2-ylsulfanyl)-furan-2-yl]-7,7-dimethyl-2,4,6,7,8,9-hexahydro-pyrazolo[3,4-b]quinolin-5-one]
7.04	6.44	O=C1CCCC2=C1C(c1ccc(Sc3nc4cc(Cl)ccc4o3)o1)c1c[nH]nc1N2 (stereo not drawn) [Example 88, 4-[5-(5-Chloro-benzoxazol-2-ylsulfanyl)-furan-2-yl]-2,4,6,7,8,9-hexahydro-pyrazolo[3,4-b]quinolin-5-one; compound with trifluoro-acetic acid]
7.51	6.45	CCOC(=O)c1[nH]cc2c1NC1=C(C(=O)CCC1)C2c1ccc(Sc2nc3cc(O)ccc3[nH]2)o1 (stereo not drawn) [Example 89, 9-[5-(5-Hydroxy-1H-benzoimidazol-2-ylsulfanyl)-furan-2-yl]-8-oxo-4,5,6,7,8,9-hexahydro-2H-pyrrolo[3,4-b]quinoline-3-carboxylic acid ethyl ester]
6.71	6.17	CC1(C)CC(=O)C2=C(C1)Nc1n[nH]cc1C2c1ccc(Sc2nc3cc(Cl)ccc3o2)o1 (stereo not drawn) [Example 90, 4-[5-(5-Chloro-benzoxazol-2-ylsulfanyl)-furan-2-yl]-7,7-dimethyl-2,4,6,7,8,9-hexahydro-pyrazolo[3,4-b]quinoline-5-one]
7.07	6.81	Cc1c[nH]c(Sc2ccc(C3C4=C(CC(C)(C)CC4=O)Nc4n[nH]cc43)o2)n1 (stereo not drawn) [Example 91, 7,7-Dimethyl-4-[5-(4-methyl-1H-imidazol-2-ylsulfanyl)-furan-2-yl]-2,4,6,7,8,9-hexahydro-pyrazolo[3,4-b]quinolin-5-one; compound with trifluoro-acetic acid]
6.63	5.68	Cn1c(-c2ccc(Cl)cc2)cnc1Sc1ccc(C2C3=C(CCCC3=O)Nc3n[nH]cc32)o1 (stereo not drawn) [Example 92, 4-{5-[5-(4-Chloro-phenyl)-1-methyl-1H-imidazol-2-ylsulfanyl]-furan-2-yl}-2,4,6,7,8,9-hexahydro-pyrazolo[3,4-b]quinolin-5-one]
6.81	5.87	Cn1c(-c2ccc(Cl)cc2)cnc1Sc1ccc(C2C3=C(CC(C)(C)CC3=O)Nc3n[nH]cc32)o1 (stereo not drawn) [Example 93, 4-{5-[5-(4-Chloro-phenyl)-1-methyl-1H-imidazol-2-ylsulfanyl]-furan-2-yl}-7,7-dimethyl-2,4,6,7,8,9-hexahydro-pyrazolo[3,4-b]quinolin-5-one]
5.91	5.01	Cn1c(-c2ccc(Cl)cc2)cnc1Sc1ccc(C2C3=C(CNCC3=O)Nc3n[nH]cc32)o1 (stereo not drawn) [Example 94, 4-{5-[5-(4-Chloro-phenyl)-1-methyl-1H-imidazol-2-ylsulfanyl]-furan-2-yl}-2,4,6,7,8,9-hexahydro-pyrazolo[3,4-b]-1,7-naphthyridin-5-one; compound with trifluoro-acetic acid]
8.05	7.21	O=C1CCCC2=C1C(c1ccc(Sc3nc4cc(C(F)(F)F)ccc4[nH]3)o1)c1cn[nH]c1N2 (stereo not drawn) [Example 95, 4-[5-(5-Trifluoromethyl-1H-benzimidazol-2-ylsulfanyl)-furan-2-yl]-1,4,6,7,8,9-hexahydro-pyrazolo[3,4-b]quinolin-5-one]
7.64	7.24	CC1(C)CC(=O)C2=C(C1)Nc1n[nH]cc1C2c1ccc(Sc2nc3cc(C(F)(F)F)ccc3[nH]2)o1 (stereo not drawn) [Example 96, 4-[5-(5-Trifluoromethyl-1H-benzoimidazol-2-ylsulfanyl)-furan-2-yl]-7,7-dimethyl-2,4,6,7,8,9-hexahydro-pyrazolo[3,4-b]quinolin-5-one]
7.33	6.53	O=C1CNCC2=C1C(c1ccc(Sc3nc4cc(C(F)(F)F)ccc4[nH]3)o1)c1c[nH]nc1N2 (stereo not drawn) [Example 97]
6.64	6.47	Cc1nc(Sc2ccc(C3C4=C(CCCC4=O)Nc4n[nH]cc43)o2)[nH]c1C (stereo not drawn) [Example 98, 4-[5-(4,5-Dimethyl-1H-imidazol-2-ylsulfanyl)-furan-2-yl]-2,4,6,7,8,9-hexahydro-pyrazolo[3,4-b]quinolin-5-one]
6.91	6.87	Cc1nc(Sc2ccc(C3C4=C(CC(C)(C)CC4=O)Nc4n[nH]cc43)o2)[nH]c1C (stereo not drawn) [Example 99, 4-[5-(4,5-Dimethyl-1H-imidazol-2-ylsulfanyl)-furan-2-yl]-7,7-dimethyl-2,4,6,7,8,9-hexahydro-pyrazolo[3,4-b]quinolin-5-one]
5.27	5.26	Cc1nc(Sc2ccc(C3C4=C(CNCC4=O)Nc4n[nH]cc43)o2)[nH]c1C (stereo not drawn) [Example 100, 4-[5-(4,5-Dimethyl-1H-imidazol-2-ylsulfanyl)-furan-2-yl]-2,4,6,7,8,9-hexahydro-pyrazolo[3,4-b]-1,7-naphthyridin-5-one; compound with trifluoro-acetic acid]
